As usually defined, the MRT is a mean duration of stay, worked out from the concentration-time curve. Usually IC50 stands for the concentration that gives 50% inhibition.

Data set [1] in a line: MRT in Balb/c mouse at 10 mg/kg, po or 1 mg/kg, iv administered as cassette dose measured upto 24 hrs by LC/MS/MS analysis. As to conditions: in vivo. Type of data set: ADME, organism-based.
Data set [2] addresses T1, Toll-like receptor 7 (Homo sapiens, UniProt Q9NYK1).
T1 sequence (Q9NYK1 whole entry): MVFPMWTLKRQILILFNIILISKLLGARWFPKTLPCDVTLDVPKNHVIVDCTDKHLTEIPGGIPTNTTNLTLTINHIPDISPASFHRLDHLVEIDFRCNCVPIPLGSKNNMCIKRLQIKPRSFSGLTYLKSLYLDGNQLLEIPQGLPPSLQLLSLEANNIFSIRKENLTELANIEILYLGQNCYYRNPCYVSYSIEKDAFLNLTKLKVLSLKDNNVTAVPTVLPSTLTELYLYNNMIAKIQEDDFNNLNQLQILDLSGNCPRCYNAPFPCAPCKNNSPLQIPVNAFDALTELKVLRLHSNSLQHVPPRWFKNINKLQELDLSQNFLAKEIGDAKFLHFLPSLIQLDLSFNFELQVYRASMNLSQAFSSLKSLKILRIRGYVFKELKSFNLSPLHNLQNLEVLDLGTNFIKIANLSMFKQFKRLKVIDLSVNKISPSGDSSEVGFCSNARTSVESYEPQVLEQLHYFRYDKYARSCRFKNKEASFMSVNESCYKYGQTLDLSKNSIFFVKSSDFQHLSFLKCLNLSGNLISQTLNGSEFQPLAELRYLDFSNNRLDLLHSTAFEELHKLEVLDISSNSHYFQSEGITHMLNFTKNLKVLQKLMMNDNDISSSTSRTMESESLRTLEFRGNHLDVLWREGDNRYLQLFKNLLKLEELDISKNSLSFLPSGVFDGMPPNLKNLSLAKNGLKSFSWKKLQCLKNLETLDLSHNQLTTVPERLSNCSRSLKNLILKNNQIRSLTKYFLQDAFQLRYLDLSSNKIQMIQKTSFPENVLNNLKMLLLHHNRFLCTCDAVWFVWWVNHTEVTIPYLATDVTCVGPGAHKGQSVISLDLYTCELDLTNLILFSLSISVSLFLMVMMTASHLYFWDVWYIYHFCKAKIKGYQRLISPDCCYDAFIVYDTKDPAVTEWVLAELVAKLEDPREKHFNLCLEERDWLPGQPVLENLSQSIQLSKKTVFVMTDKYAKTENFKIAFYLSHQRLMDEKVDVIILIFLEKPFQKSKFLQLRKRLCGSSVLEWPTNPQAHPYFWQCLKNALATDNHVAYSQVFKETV
Put plainly: Antagonist activity at human TLR7 expressed in human whole blood assessed as inhibition of ssRNA stimulated IFNalpha level preincubated for 30 mins followed by stimulation and measured after 20 hrs by AlphaLISA method. Format: tissue-based. A general note: Alpha assays give light when donor and acceptor beads are brought close together.

A short description of data set [3]: Drug exposure in 129Sv mouse blood at 0.1 mg/kg, po by LC-MS/MS analysis. Type of data set: ADME, organism-based. The following applies: in vivo, read-out: Drug uptake.
In data set [4] the target is T2, Toll-like receptor 7 (Mus musculus, UniProt P58681).
T2 sequence (P58681 whole entry): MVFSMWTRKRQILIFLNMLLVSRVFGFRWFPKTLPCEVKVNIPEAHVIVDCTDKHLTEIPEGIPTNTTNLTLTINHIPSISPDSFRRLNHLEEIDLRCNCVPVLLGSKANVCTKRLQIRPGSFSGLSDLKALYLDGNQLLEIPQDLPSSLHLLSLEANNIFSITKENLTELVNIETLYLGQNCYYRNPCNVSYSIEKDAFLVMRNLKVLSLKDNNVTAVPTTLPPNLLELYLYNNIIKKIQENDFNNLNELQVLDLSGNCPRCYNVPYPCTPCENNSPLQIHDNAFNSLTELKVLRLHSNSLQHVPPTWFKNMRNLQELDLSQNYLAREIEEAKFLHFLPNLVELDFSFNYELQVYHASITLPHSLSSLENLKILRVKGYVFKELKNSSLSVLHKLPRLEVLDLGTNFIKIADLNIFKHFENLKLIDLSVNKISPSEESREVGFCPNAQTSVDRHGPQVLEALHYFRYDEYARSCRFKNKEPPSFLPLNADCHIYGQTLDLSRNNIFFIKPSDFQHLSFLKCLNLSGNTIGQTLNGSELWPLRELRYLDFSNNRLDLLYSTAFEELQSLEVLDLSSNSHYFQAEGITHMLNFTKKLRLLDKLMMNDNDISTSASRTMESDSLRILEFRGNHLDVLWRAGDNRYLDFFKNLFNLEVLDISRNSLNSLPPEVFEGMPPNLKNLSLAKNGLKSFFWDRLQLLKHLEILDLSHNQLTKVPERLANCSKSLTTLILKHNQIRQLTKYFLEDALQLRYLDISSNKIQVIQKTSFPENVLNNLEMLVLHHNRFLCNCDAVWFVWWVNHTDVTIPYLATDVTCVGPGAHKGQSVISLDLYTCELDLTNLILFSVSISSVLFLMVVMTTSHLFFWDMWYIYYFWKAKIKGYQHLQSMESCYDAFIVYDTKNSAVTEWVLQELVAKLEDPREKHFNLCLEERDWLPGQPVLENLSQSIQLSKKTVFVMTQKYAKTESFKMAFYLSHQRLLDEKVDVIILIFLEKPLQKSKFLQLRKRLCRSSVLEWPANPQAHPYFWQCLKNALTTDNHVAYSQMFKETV
Put plainly: Antagonist activity at mouse TLR7 expressed in human whole blood assessed as inhibition of ssRNA stimulated IFNalpha level preincubated for 30 mins followed by stimulation and measured after 20 hrs by AlphaLISA method. Type of data set: tissue-based.

Data set [5] is described as follows: Clearance in Balb/c mouse at 10 mg/kg, po or 1mg/kg, iv administered as cassette dose measured upto 24 hrs by LC/MS/MS analysis. Type of data set: ADME, organism-based. The following applies: in vivo.

As for `Cc1cc(-c2cc3[nH]nc(N[C@@H]4CCNC[C@H]4F)c3cc2C2CC2)cc(C)n1`, the MRT in data set [1] is 2.5 h. The IC50 is 4.9 nM in data set [2] and 2 nM in data set [4]. In addition, in data set [3], the concentration worked out at 0.4 nM. Also, the clearance in data set [5] was 55 mL/min/kg.
